The record followed here is US20210395239A1 (Hoffmann-La Roche Inc., priority 2018, published 2021).

Structures are written as SMILES.

This assay deals with T1, hTLR9 (Homo sapiens, UniProt Q9NR96).
T1 sequence (Q9NR96 26-1032): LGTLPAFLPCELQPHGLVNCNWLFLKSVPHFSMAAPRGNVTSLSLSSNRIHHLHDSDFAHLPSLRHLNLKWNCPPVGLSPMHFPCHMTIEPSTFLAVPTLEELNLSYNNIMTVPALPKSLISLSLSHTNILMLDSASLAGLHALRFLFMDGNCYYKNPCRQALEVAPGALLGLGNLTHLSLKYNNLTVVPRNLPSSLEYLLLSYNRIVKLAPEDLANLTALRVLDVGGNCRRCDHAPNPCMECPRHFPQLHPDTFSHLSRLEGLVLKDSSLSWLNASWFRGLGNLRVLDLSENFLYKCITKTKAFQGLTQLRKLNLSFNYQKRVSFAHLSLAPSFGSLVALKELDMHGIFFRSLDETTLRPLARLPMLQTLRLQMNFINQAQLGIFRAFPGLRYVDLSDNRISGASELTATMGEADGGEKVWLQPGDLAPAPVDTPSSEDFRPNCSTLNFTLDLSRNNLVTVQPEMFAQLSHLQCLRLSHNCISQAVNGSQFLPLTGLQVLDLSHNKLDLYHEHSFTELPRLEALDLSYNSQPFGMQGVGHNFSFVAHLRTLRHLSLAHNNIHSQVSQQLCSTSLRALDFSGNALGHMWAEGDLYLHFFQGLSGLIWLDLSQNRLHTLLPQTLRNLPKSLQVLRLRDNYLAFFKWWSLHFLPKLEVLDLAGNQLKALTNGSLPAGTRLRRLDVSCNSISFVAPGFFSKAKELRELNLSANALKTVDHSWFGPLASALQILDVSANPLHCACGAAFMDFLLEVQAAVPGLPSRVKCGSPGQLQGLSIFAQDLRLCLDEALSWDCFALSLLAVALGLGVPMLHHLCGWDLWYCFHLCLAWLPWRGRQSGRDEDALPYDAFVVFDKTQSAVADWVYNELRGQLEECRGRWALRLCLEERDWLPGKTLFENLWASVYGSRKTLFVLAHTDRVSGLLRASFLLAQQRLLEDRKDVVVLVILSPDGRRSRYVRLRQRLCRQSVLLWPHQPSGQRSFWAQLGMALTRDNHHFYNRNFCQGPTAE
The assay is described as follows: HEK293-Blue-hTLR-9 cells assay (SEAP reporter, ODN2006 stimulation). The format is cell-based. Details: host or cells: HEK293 (HEK-Blue hTLR9). To be noted: HEK293-Blue-hTLR9 cells, ODN2006, 20 hrs; read-out: HEK/hTLR9 IC50. The method in brief: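 HEK293-Blue-hTLR9 cells with NF-κB/AP-1-driven SEAP reporter treated with serially diluted compound (1% DMSO final) plus ODN2006 for 20 h at 37 °C. Supernatant SEAP measured with QUANTI-Blue, 2 h at 37 °C, absorbance 620–655 nm; antagonism seen as reduced reporter signal.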
In the case of `[2H]c1ccc2c(N3C[C@H](CN4CCN(c5cnc(N6CC(C)(N)C6)cc5C)CC4)O[C@H](C)C3)ccc(C#N)c2n1` [Example 133, 5-[(2S,6R)-2-[[4-[6-(3-amino-3-methyl-azetidin-1-yl)-4-methyl-3-pyridyl]piperazin-1-yl]methyl]-6-methyl-morpholin-4-yl]-2-deuterio-quinoline-8-carbonitrile], the IC50 was 68 nM. The result for `CO[C@@H]1CN(c2cc(C)nc(N3CCN(C[C@H]4CN(c5ccc(C#N)c6nccnc56)C[C@@H](C)O4)CC3)n2)C[C@@H]1N` [Example 120, 8-[(2S,6R)-2-[[4-[4-[(3S,4R)-3-amino-4-methoxy-pyrrolidin-1-yl]-6-methyl-pyrimidin-2-yl]piperazin-1-yl]methyl]-6-methyl-morpholin-4-yl]quinoxaline-5-carbonitrile] reads 31 nM; that for `C[C@@H]1CN(c2ccc(C#N)n3ncc(F)c23)C[C@H](CN2CC(c3ccc(N4CC(C)(N)C4)cc3)C2)O1` [Example 160, 4-[(2S,6R)-2-[[3-[4-(3-amino-3-methyl-azetidin-1-yl)phenyl]azetidin-1-yl]methyl]-6-methyl-morpholin-4-yl]-3-fluoro-pyrazolo[1,5-a]pyridine-7-carbonitrile], 163 nM. Next, `C[C@@H]1CN(c2ccc(C#N)c3ncccc23)C[C@H](CN2CCN(c3ccnc(N4C[C@H](N)[C@@H](F)C4)n3)CC2)O1` [Example 110, 5-[(2S,6R)-2-[[4-[2-[(3S,4S)-3-amino-4-fluoro-pyrrolidin-1-yl]pyrimidin-4-yl]piperazin-1-yl]methyl]-6-methyl-morpholin-4-yl]quinoline-8-carbonitrile]: 68 nM; `[2H]c1ccc2c(N3C[C@H](CN4CCN(c5nc(C)cc(N6CC(C)(N)C6)n5)CC4)O[C@H](C)C3)ccc(C#N)c2n1` [Example 135, 5-[(2S,6R)-2-[[4-[4-(3-amino-3-methyl-azetidin-1-yl)-6-methyl-pyrimidin-2-yl]piperazin-1-yl]methyl]-6-methyl-morpholin-4-yl]-2-deuterio-quinoline-8-carbonitrile]: 56 nM. The result for `C[C@@H]1CN(c2ccc(C#N)c3ncccc23)C[C@H](CN2CCN(c3ccnc(N4C[C@@H](F)[C@@H](N)C4)n3)CC2)O1` [Example 95, 5-[(2S,6R)-2-[[4-[2-[(3S,4R)-3-amino-4-fluoro-pyrrolidin-1-yl]pyrimidin-4-yl]piperazin-1-yl]methyl]-6-methyl-morpholin-4-yl]quinoline-8-carbonitrile] reads 31 nM; that for `CO[C@H]1CN(c2cc(C)nc(N3CCN(C[C@H]4CN(c5ccc(C#N)c6nccnc56)C[C@@H](C)O4)CC3)n2)C[C@H]1N` [Example 122, 8-[(2S,6R)-2-[[4-[4-[(3R,4S)-3-amino-4-methoxy-pyrrolidin-1-yl]-6-methyl-pyrimidin-2-yl]piperazin-1-yl]methyl]-6-methyl-morpholin-4-yl]quinoxaline-5-carbonitrile], 31 nM; that for `C[C@@H]1CN(c2ccc(C#N)c3nccnc23)C[C@H](CN2CCN(c3ccnc(N4CC[C@@H](N)[C@H](F)C4)n3)CC2)O1` [Example 113, 8-[(2S,6R)-2-[[4-[2-[(3R,4R)-4-amino-3-fluoro-1-piperidyl]pyrimidin-4-yl]piperazin-1-yl]methyl]-6-methyl-morpholin-4-yl]quinoxaline-5-carbonitrile], 98 nM. For `C[C@@H]1CN(c2ccc(C#N)n3nccc23)C[C@H](CN2CC(c3ccc(N4CC(C)(N)C4)nc3)C2)O1` [Example 157, 4-[(2S,6R)-2-[[3-[6-(3-amino-3-methyl-azetidin-1-yl)-3-pyridyl]azetidin-1-yl]methyl]-6-methyl-morpholin-4-yl]pyrazolo[1,5-a]pyridine-7-carbonitrile], the IC50 was 31 nM. With `C[C@@H]1CN(c2ccc(C#N)c3ncccc23)C[C@H](CN2CCN(c3ccnc(N4C[C@@H](N)[C@H](F)C4)n3)CC2)O1` [Example 96, 5-[(2S,6R)-2-[[4-[2-[(3R,4R)-3-amino-4-fluoro-pyrrolidin-1-yl]pyrimidin-4-yl]piperazin-1-yl]methyl]-6-methyl-morpholin-4-yl]quinoline-8-carbonitrile], the IC50 came to 109 nM. As for `CO[C@@H]1CN(c2ccc(N3CCN(C[C@H]4CN(c5ccc(C#N)n6ncc(F)c56)C[C@@H](C)O4)CC3)cn2)C[C@H]1N` [Example 166, 4-[(2S,6R)-2-[[4-[6-[(3R,4R)-3-amino-4-methoxy-pyrrolidin-1-yl]-3-pyridyl]piperazin-1-yl]methyl]-6-methyl-morpholin-4-yl]-3-fluoro-pyrazolo[1,5-a]pyridine-7-carbonitrile], the IC50 was 46 nM. As for `[2H]c1nc2c(C#N)ccc(N3C[C@H](CN4CCN(c5nc(C)cc(N6CC(N)C6)n5)CC4)O[C@H](C)C3)c2nc1[2H]` [Example 124, 8-[(2S,6R)-2-[[4-[4-(3-aminoazetidin-1-yl)-6-methyl-pyrimidin-2-yl]piperazin-1-yl]methyl]-6-methyl-morpholin-4-yl]-2,3-dideuterio-quinoxaline-5-carbonitrile], the IC50 amounted to 31 nM. `[2H]c1ccc2c(N3C[C@H](CN4CC(c5ccc(N6CC(C)(N)C6)nc5)C4)O[C@H](C)C3)ccc(C#N)c2n1` [Example 138, 5-[(2S,6R)-2-[[3-[6-(3-amino-3-methyl-azetidin-1-yl)-3-pyridyl]azetidin-1-yl]methyl]-6-methyl-morpholin-4-yl]-2-deuterio-quinoline-8-carbonitrile]: the IC50 turned out to be 40 nM. Next, `CO[C@H]1CN(c2cc(C)nc(N3CCN(C[C@H]4CN(c5ccc(C#N)c6nccnc56)C[C@@H](C)O4)CC3)n2)C[C@@H]1N` [Example 104, 8-[(2S,6R)-2-[[4-[4-[(3S,4S)-3-amino-4-methoxy-pyrrolidin-1-yl]-6-methyl-pyrimidin-2-yl]piperazin-1-yl]methyl]-6-methyl-morpholin-4-yl]quinoxaline-5-carbonitrile]: 70 nM.

With `C[C@@H]1CN(c2ccc(C#N)c3ncccc23)C[C@H](CN2CC(c3ccc(N4CCNCC4)cc3)C2)O1` [Example 3, 5-[(2R,6S)-2-methyl-6-[[3-(4-piperazin-1-ylphenyl)azetidin-1-yl]methyl]morpholin-4-yl]quinoline-8-carbonitrile], the IC50 amounted to 52 nM. In the case of `COc1cc(N2CCN(C[C@H]3CN(c4ccc(C#N)c5ncccc45)C[C@@H](C)O3)CC2)nc(N2CCNCC2)n1` [Example 91, 5-[(2S,6R)-2-[[4-(6-methoxy-2-piperazin-1-yl-pyrimidin-4-yl)piperazin-1-yl]methyl]-6-methyl-morpholin-4-yl]quinoline-8-carbonitrile], the IC50 amounted to 102 nM. As to `[2H]c1ccc2c(N3C[C@H](CN4CCN(c5ccc(N[C@H]6CNC[C@H]6F)nc5)CC4)O[C@H](C)C3)ccc(C#N)c2n1` [Example 162, 2-deuterio-5-[(2S,6R)-2-[[4-[6-[[(3S,4R)-4-fluoropyrrolidin-3-yl]amino]-3-pyridyl]piperazin-1-yl]methyl]-6-methyl-morpholin-4-yl]quinoline-8-carbonitrile], the IC50 was 36 nM. As to `CO[C@@H]1CN(c2cc(C)nc(N3CCN(C[C@H]4CN(c5ccc(C#N)c6nccnc56)C[C@@H](C)O4)CC3)n2)C[C@H]1N` [Example 121, 8-[(2S,6R)-2-[[4-[4-[(3R,4R)-3-amino-4-methoxy-pyrrolidin-1-yl]-6-methyl-pyrimidin-2-yl]piperazin-1-yl]methyl]-6-methyl-morpholin-4-yl]quinoxaline-5-carbonitrile], the IC50 was 44 nM.
